From patent publication US12435066B2, “Substituted tricyclic compounds” (LUPIN LIMITED, priority 2019, dated 2025)

How the values were obtained:
[1] = system: pERK in DLD1 cells; assay: ERK phosphorylation assay after EGF stimulation; type: cell-based; conditions: Homo sapiens, DLD-1, compound 2 h, 200 ng/ml hEGF 5 minutes, alphascreen pERK, read-out: ERK phosphorylation inhibition IC50
Experimental: Example-128: ERK Phosphorylation Assay Protocol
Compounds were tested for their ability to inhibit pERK after EGF stimulation in DLD1 cells. Cells were seeded at 0.2 million cells per well in 96 well cell binding tissue culture plate in 100 μL complete media and were allowed to settle overnight (16 to 20 h). On the following day, cells were treated with various concentrations of test compounds for 2 h followed by stimulation with 200 ng/ml hEGF (diluted in PBS) for 5 minutes. Cells were then washed once with PBS and lysed in freshly prepared lysis buffer (provided with alphascreen surefire ERK1/2 p-T202/Y204 assay kit, cat no: TGRESB10K, Perkin Elmer). Lysis was carried out in plate shaker for 10-15 mins. Lysate was transferred to […] white opti-plate (Perkin Elmer) and alphascreen for pERK was carried out as per manufacturer's instructions. Plate was read after 2 h incubation in plate shaker at […] 300 RPM, 25-28° C.

[2] = target: T1, hSOS1 and hKRASG12C (Homo sapiens, UniProt Q07889); assay: biochemical
T1 sequence (Q07889 564-1049): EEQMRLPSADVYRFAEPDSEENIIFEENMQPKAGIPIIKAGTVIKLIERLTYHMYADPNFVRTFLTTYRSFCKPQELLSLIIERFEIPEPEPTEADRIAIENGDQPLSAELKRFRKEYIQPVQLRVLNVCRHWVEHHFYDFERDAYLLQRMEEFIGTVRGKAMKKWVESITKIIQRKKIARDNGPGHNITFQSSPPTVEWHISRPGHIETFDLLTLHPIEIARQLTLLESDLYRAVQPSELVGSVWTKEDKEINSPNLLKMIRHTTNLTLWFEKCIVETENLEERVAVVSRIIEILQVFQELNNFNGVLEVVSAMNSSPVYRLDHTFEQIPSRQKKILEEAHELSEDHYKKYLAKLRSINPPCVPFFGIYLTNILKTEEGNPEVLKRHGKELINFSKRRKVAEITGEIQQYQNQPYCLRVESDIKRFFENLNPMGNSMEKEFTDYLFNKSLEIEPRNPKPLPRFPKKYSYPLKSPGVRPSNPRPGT
Experimental: Interaction assay was conducted to evaluate the ability of the compounds to disrupt the protein-protein interactions between hSOS1 and hKRASG12C. Inhibitory effect of compounds on GST-hSOS1, 564-1049aa expressed and purified in-house and HIS-hKRASG12C (R06-32DH, SignalChem) interaction was assessed using HTRF detection technology in biochemical assay. Compounds were pre-incubated with 10-50 nM working solution of hSOS1 per well of a 384 well plate (Perkin Elmer, Cat #6007290) for 10 min at 20° C. in the assay buffer containing 5 mM HEPES, pH 7.4, 150 mM NaCl, 10 mM EDTA, 1 mM DTT, 0.05% BSA fraction V and 0.0025% Igepal. Reaction was initiated by adding 100-300 nM working solution of hKRASG12C in assay buffer. Total assay volume was 15 μL. Reaction was continued for 30-60 min at 20° C. Then detection solution containing MAb Anti-GST-d2 (#61GSTDLA, Cisbio BioAssays) and MAb Anti-HIS-Tb (#61HISTLA, Cisbio BioAssays), all prepared in HTRF detection buffer (#61DB10RDF, Cisbio BioAssays) was added and further incubated for 30-60 min at 20° C. HTRF signal was recorded in PHERAStar microplate reader. Ratio of signal obtained at 665 nm and 620 nm was used to compute the percent inhibition of compound utilizing the following formula:
Positive control=hSOS1+hKRASG12C+MAb Anti-GST-d2+Mab Anti-HIS-Tb Negative control=hKRASG12C+MAb Anti-GST-d2+MAb Anti-HIS-Tb

[3] = target: T2, hSOS1 mediated nucleotide exchange on hKRASG12C (Homo sapiens, UniProt Q07889); assay: biochemical
T2 sequence (Q07889 564-1049): T1 sequence (Q07889 564-1049)
Experimental: Example-127: Guanine Nucleotide Exchange Assay (GNEA)
GNEA assay was conducted to evaluate the effects of compounds on the nucleotide exchange on hKRASG12C mediated by hSOS1. Inhibitory effect of compounds on HIS-hSOS1, 564-1049aa mediated GTP loading onto GST-hKRASG12C, 1-169aa both expressed and purified in-house was assessed using HTRF detection technology in biochemical assay. Compounds were pre-incubated with hSOS1 working solution containing 10-50 nM hSOS1 and 200 nM EDA-GTP-DY-647P1 (Custom manufactured, Jena Biosciences) per well of a 384 well plate (Perkin Elmer, Cat #6007290) for 10 min at 20° C. in the assay buffer containing 10 mM HEPES, pH 7.4, 150 mM NaCl, 5 mM MgCl2, 1 mM DTT, 0.05% BSA fraction V and 0.0025% Igepal. Reaction was initiated by adding working solution of hKRASG12C containing 25-125 nM hKRASG12C and MAb Anti-GST-Tb (#61GSTTLA, Cisbio BioAssays) in assay buffer. Total assay volume was 15 μL. Reaction was continued for 30-60 min at 20° C. HTRF signal was recorded in PHERAStar microplate reader. Ratio of signal obtained at 665 nm and 620 nm was used to compute the percent inhibition of compound as follows.
Where, Positive control=hSOS1+EDA-GTP-DY-647P1+hKRASG12C+MAb Anti-GST-Tb Negative control=EDA-GTP-DY-647P1+hKRASG12C+MAb Anti-GST-Tb

`Cc1nc(N[C@H](C)c2cc(N)cc(C(F)(F)F)c2)c2cc(N3CCOCC3)c3c(c2n1)CC(C)O3` (mixture of isomers) [Compound 117a, (R/S)—N—((R)-1-(3-amino-5-(trifluoromethyl)phenyl)ethyl)-2,8-dimethyl-6-morpholino-8,9-dihydrofuro[2,3-h]quinazolin-4-amine] gave an IC50 [1] of 1 to 200 nM, an IC50 [2] of 1 to 10 nM and an IC50 [3] of 31 to 70 nM.

`Cc1nc(NC(C)c2cc(N)cc(C(F)F)c2)c2cc(N3CC4(COC4)C3)c3c(c2n1)CCC3` (racemic) [Compound 78, (R/S)—N-(1-(3-amino-5-(difluoromethyl)phenyl)ethyl)-2-methyl-6-(2-oxa-6-azaspiro[3.3]heptan-6-yl)-8,9-dihydro-7H-cyclopenta[h]quinazolin-4-amine] showed an IC50 [1] of 1 to 200 nM, an IC50 [2] of 1 to 10 nM and an IC50 [3] of 1 to 30 nM.

Compound `Cc1nc(N[C@H](C)c2cccc(C(F)(F)[C@@](C)(O)CO)c2F)c2cc(N3CCOCC3)c3c(c2n1)CCC3` (racemic) [Compound 82b, (S/R)-3,3-difluoro-3-(2-fluoro-3-((S/R)-1-((2-methyl-6-morpholino-8,9-dihydro-7H-cyclopenta[h]quinazolin-4-yl)amino)ethyl)phenyl)-2-methylpropane-1,2-diol] has an IC50 [1] of 1 to 200 nM, an IC50 [2] of 1 to 10 nM and an IC50 [3] of 1 to 30 nM.

For `Cc1nc(N[C@H](C)c2cc(N)cc(C(F)(F)F)c2)c2cc(N3CCC(C)(O)C3)c3c(c2n1)CCC3` (single isomer, unassigned) [Compound 55a], the IC50 [1] was 1 to 200 nM, the IC50 [2] was 11 to 20 nM and the IC50 [3] was 31 to 70 nM.

For `Cc1nc(N[C@H](C)c2cc(N)cc(C(F)(F)F)c2)c2cc(N3CC[C@](C)(O)C3)c3c(c2n1)CCC3` (single isomer, unassigned) [Compound 55b], the IC50 [1] was 1 to 200 nM, the IC50 [2] was 11 to 20 nM and the IC50 [3] was 71 to 130 nM.

`Cc1nc(N[C@H](C)c2cccc(C(F)(F)C(C)(C)O)c2F)c2cc(N3CC[C@@](C)(O)C3)c3c(c2n1)CCC3` (single isomer, unassigned) [Compound 61a] showed an IC50 [1] of 1 to 200 nM, an IC50 [2] of 1 to 10 nM and an IC50 [3] of 1 to 30 nM.

`COCC1(O)CCN(c2cc3c(N[C@H](C)c4cccc(C(F)(F)C(C)O)c4F)nc(C)nc3c3c2CCC3)CC1` (single isomer, unassigned) [Compound 72a] showed an IC50 [1] of 1 to 200 nM, an IC50 [2] of 1 to 10 nM and an IC50 [3] of 1 to 30 nM.

Compound `COCC1(O)CCN(c2cc3c(N[C@H](C)c4cccc(C(F)(F)[C@@H](C)O)c4F)nc(C)nc3c3c2CCC3)CC1` (single isomer, unassigned) [Compound 72b] has an IC50 [1] of 1 to 200 nM, an IC50 [2] of 1 to 10 nM and an IC50 [3] of 1 to 30 nM.

With `Cc1nc(N[C@H](C)c2cccc(C(F)(F)C(C)O)c2F)c2cc(N3CC4(COC4)C3)c3c(c2n1)CCC3` (single isomer, unassigned) [Compound 73a] the IC50 [1] was 1 to 200 nM, the IC50 [2] was 1 to 10 nM and the IC50 [3] was 1 to 30 nM.

In the case of `Cc1nc(N[C@H](C)c2cccc(C(F)(F)[C@@H](C)O)c2F)c2cc(N3CC4(COC4)C3)c3c(c2n1)CCC3` (single isomer, unassigned) [Compound 73b], the IC50 [1] is reported as 1 to 200 nM, the IC50 [2] is reported as 1 to 10 nM and the IC50 [3] is reported as 1 to 30 nM.

In the case of `Cc1nc(N[C@H](C)c2cc(N)cc(C(F)(F)F)c2)c2cc(N3CCOCC3)c3c(c2n1)CCC3` [Compound 2, (R)—N-(1-(3-amino-5-(trifluoromethyl)phenyl)ethyl)-2-methyl-6-morpholino-8,9-dihydro-7H-cyclopenta[h]quinazolin-4-amine], the IC50 [1] is reported as 1 to 200 nM, the IC50 [2] is reported as 1 to 10 nM and the IC50 [3] is reported as 1 to 30 nM.

`Cc1nc(N[C@H](C)c2cccc(C(F)(F)C(C)(C)O)c2F)c2cc(N3CC4(COC4)C3)c3c(c2n1)CCC3` [Compound 10, (R)-1,1-difluoro-1-(2-fluoro-3-(1-((2-methyl-6-(2-oxa-6-azaspiro[3.3]heptan-6-yl)-8,9-dihydro-7H-cyclopenta[h]quinazolin-4-yl)amino)ethyl)phenyl)-2-methylpropan-2-ol] showed an IC50 [1] of 1 to 200 nM, an IC50 [2] of 1 to 10 nM and an IC50 [3] of 1 to 30 nM.

`Cc1nc(N[C@H](C)c2cccc(C(F)(F)CO)c2F)c2cc(N3CC[C@H](O)C3)c3c(c2n1)CCC3` [Compound 22, (S)-1-(4-(((R)-1-(3-(1,1-difluoro-2-hydroxyethyl)-2-fluorophenyl)ethyl)amino)-2-methyl-8,9-dihydro-7H-cyclopenta[h]quinazolin-6-yl)pyrrolidin-3-ol] showed an IC50 [1] of 1 to 200 nM, an IC50 [2] of 1 to 10 nM and an IC50 [3] of 1 to 30 nM.

Work on `Cc1nc(N[C@H](C)c2cccc(C(F)(F)CO)c2F)c2cc(N3CC4(COC4)C3)c3c(c2n1)CCC3` [Compound 23, (R)-2,2-difluoro-2-(2-fluoro-3-(1-((2-methyl-6-(2-oxa-6-azaspiro[3.3]heptan-6-yl)-8,9-dihydro-7H-cyclopenta[h]quinazolin-4-yl)amino)ethyl)phenyl)ethan-1-ol] yielded an IC50 [1] of 1 to 200 nM, an IC50 [2] of 1 to 10 nM and an IC50 [3] of 1 to 30 nM.

In the case of `COCC(F)(F)c1cccc([C@@H](C)Nc2nc(C)nc3c4c(c(N5CC6(COC6)C5)cc23)CCC4)c1F` [Compound 24, (R)—N-(1-(3-(1,1-difluoro-2-methoxyethyl)-2-fluorophenyl)ethyl)-2-methyl-6-(2-oxa-6-azaspiro[3.3]heptan-6-yl)-8,9-dihydro-7H-cyclopenta[h]quinazolin-4-amine], the IC50 [1] is reported as 1 to 200 nM, the IC50 [2] is reported as 1 to 10 nM and the IC50 [3] is reported as 31 to 70 nM.

`COCC1CN(c2cc3c(N[C@H](C)c4cc(N)cc(C(F)(F)F)c4)nc(C)nc3c3c2CCC3)C1` [Compound 26, (R)—N-(1-(3-amino-5-(trifluoromethyl)phenyl)ethyl)-6-(3-(methoxymethyl)azetidin-1-yl)-2-methyl-8,9-dihydro-7H-cyclopenta[h]quinazolin-4-amine] showed an IC50 [1] of 1 to 200 nM, an IC50 [2] of 1 to 10 nM and an IC50 [3] of 31 to 70 nM.

`Cc1nc(N[C@H](C)c2cc(N)cc(C(F)(F)F)c2)c2cc(NC3COC3)c3c(c2n1)CCC3` [Compound 28, (R)—N^4-(1-(3-amino-5-(trifluoromethyl)phenyl)ethyl)-2-methyl-N^6-(oxetan-3-yl)-8,9-dihydro-7H-cyclopenta[h]quinazoline-4,6-diamine] was tested, and the IC50 [2] was 1 to 10 nM and the IC50 [3] was 31 to 70 nM.

Compound `Cc1nc(N[C@H](C)c2cccc(C(F)(F)CO)c2F)c2cc(N3CC[C@@H](O)C3)c3c(c2n1)CCC3` [Compound 30, (R)-1-(4-(((R)-1-(3-(1,1-difluoro-2-hydroxyethyl)-2-fluorophenyl)ethyl)amino)-2-methyl-8,9-dihydro-7H-cyclopenta[h]quinazolin-6-yl)pyrrolidin-3-ol] has an IC50 [1] of 1 to 200 nM, an IC50 [2] of 1 to 10 nM and an IC50 [3] of 1 to 30 nM.

`Cc1nc(N[C@H](C)c2cc(N)cc(C(F)(F)F)c2)c2cc(N3CC4(COC4)C3)c3c(c2n1)CCC3` [Compound 33, (R)—N-(1-(3-amino-5-(trifluoromethyl)phenyl)ethyl)-2-methyl-6-(2-oxa-6-azaspiro[3.3]heptan-6-yl)-8,9-dihydro-7H-cyclopenta[h]quinazolin-4-amine] showed an IC50 [1] of 1 to 200 nM, an IC50 [2] of 1 to 10 nM and an IC50 [3] of 1 to 30 nM.

In the case of `COC[C@H]1CN(c2cc3c(N[C@H](C)c4cccc(C(F)(F)CO)c4F)nc(C)nc3c3c2CCC3)CCO1` [Compound 35, 2,2-difluoro-2-(2-fluoro-3-((R)-1-((6-((R)-2-(methoxymethyl)morpholino)-2-methyl-8,9-dihydro-7H-cyclopenta[h]quinazolin-4-yl)amino)ethyl)phenyl)ethan-1-ol], the IC50 [1] is reported as 1 to 200 nM, the IC50 [2] is reported as 1 to 10 nM and the IC50 [3] is reported as 1 to 30 nM.

`Cc1nc(N[C@H](C)c2cc(N)cc(C(F)(F)F)c2)c2cc(C3CCN(C)CC3)c3c(c2n1)CCC3` [Compound 101, (R)—N-(1-(3-amino-5-(trifluoromethyl)phenyl)ethyl)-2-methyl-6-(1-methylpiperidin-4-yl)-8,9-dihydro-7H-cyclopenta[h]quinazolin-4-amine] showed an IC50 [1] of 1 to 200 nM and an IC50 [2] of 1 to 10 nM.

`Cc1nc(N[C@H](C)c2cc(N)cc(C(F)(F)F)c2)c2cc(O[C@H]3CCOC3)c3c(c2n1)CCC3` [Compound 109, N—((R)-1-(3-amino-5-(trifluoromethyl)phenyl)ethyl)-2-methyl-6-(((S)-tetrahydrofuran-3-yl)oxy)-8,9-dihydro-7H-cyclopenta[h]quinazolin-4-amine] gave an IC50 [1] of 201 to 500 nM and an IC50 [2] of 11 to 20 nM.

Work on `Cc1nc(N[C@H](C)c2cc(N)cc(C(F)(F)F)c2)c2cc(O[C@H]3CCOC3)c3oc(C)cc3c2n1` [Compound 111] yielded an IC50 [1] of 201 to 500 nM and an IC50 [2] of 11 to 20 nM.

Work on `Cc1nc(N[C@H](C)c2cc(N)cc(C(F)(F)F)c2)c2cc(O[C@H]3CCOC3)c3c(c2n1)CC(C)(C)O3` [Compound 112, N—((R)-1-(3-amino-5-(trifluoromethyl)phenyl)ethyl)-2,8,8-trimethyl-6-(((S)-tetrahydrofuran-3-yl)oxy)-8,9-dihydrofuro[2,3-h]quinazolin-4-amine] yielded an IC50 [1] of 1 to 200 nM and an IC50 [2] of 11 to 20 nM.
